Experimental data: ChEMBL document CHEMBL5649169 (ChemMedChem, 2018)

Tests used:
[1] = biological target: Dual specificity protein kinase CLK4 (Homo sapiens) (UniProt Q9HAZ1)
[2] = biological target: Phosphatidate cytidylyltransferase 2 (Homo sapiens) (UniProt O95674)
[3] = biological target: Vacuolar protein sorting-associated protein 51 homolog (Homo sapiens) (UniProt Q9UID3)
Copine-4 (Homo sapiens) = Copine-4 (Homo sapiens) (UniProt Q96A23)
[4] = biological target: Nascent polypeptide-associated complex subunit alpha (Homo sapiens) (UniProt Q13765)
[5] = biological target: Transcriptional repressor CTCF (Homo sapiens) (UniProt P49711)
[6] = biological target: RNA-binding protein Musashi homolog 2 (Homo sapiens) (UniProt Q96DH6)
[7] = biological target: Macrophage-stimulating protein receptor (Homo sapiens) (UniProt Q04912)
[8] = biological target: Lysophosphatidylcholine acyltransferase 1 (Homo sapiens) (UniProt Q8NF37)
[9] = biological target: 14-3-3 protein sigma (Homo sapiens) (UniProt P31947)
[10] = biological target: Replication factor C subunit 5 (Homo sapiens) (UniProt P40937)
[11] = biological target: F-actin-capping protein subunit alpha-1 (Homo sapiens) (UniProt P52907)
Further: assay method not described here.

| Structure (SMILES) | ED50 [1] | ED50 [2] | ED50 [3] | ED50 (Copine-4 (Homo sapiens)) | ED50 [4] | ED50 (Homo sapiens) | ED50 [5] | ED50 [6] | ED50 [7] | ED50 [8] | ED50 [9] | ED50 [10] | ED50 [11] |
| --- | --- | --- | --- | --- | --- | --- | --- | --- | --- | --- | --- | --- | --- |
| Cc1ccc(C(=O)Nc2cccc(C(F)(F)F)c2)cc1Nc1nc(-c2cccnc2)nc2c1cnn2C | 676000 nM | 4330 nM | 5200 nM | 8.67 nM | 90.1 nM | 29.9 nM | 1990 nM | 1.24 nM | 91.1 nM | 896 nM | 3.06 nM | 584 nM |  |
| Cc1ccc(C(=O)Nc2cccc(C(F)(F)F)c2)cc1Nc1nc(-c2cccnc2)nc2nn(C)cc12 |  |  |  |  |  |  |  |  |  |  |  |  | 1490 nM |
